Results: patent US20060199772A1, “Use of a proteasome inhibitor in the treatment of endothelial dysfunction and/or in a low-dose proteasome inhibitor therapy” (Charite'-Universitaetsmedizin Berlin, priority 2002, published 2006)
Entries after “also recorded” stand apart in the source; their conditions may differ. Where a SMILES comes first, the peptide text is derived from it. The star is where a group is joined. Cbz = O=C(OCc1ccccc1)*

Legend:
eNOS mRNA [1] = experiment: eNOS mRNA levels by real-time RT-PCR in CPAE cells; type: cell-based, bovine
Procedure: (§1) The bovine pulmonary artery endothelial cell line (CPAE cells) was purchased from the American Type Culture Collection (ATCC, # CCL-209) and was cultured in MEM supplemented with 5% FCS, 1.5 g/L sodium bicarbonate, 0.11 g/L sodium pyruvate, 100 U/mL penicillin, and 100 μg/ml streptomycin. Human umbilical vein endothelial cells (HUVECs) were isolated and cultured as described previously (Stangl et al. Homocysteine inhibits TNF-α-induced endothelial adhesion molecule expression and monocyte adhesion via nuclear factor-κB dependent pathwas. Biochem Biophys Commun. 2001; 280:1093-1100). Purity of HU-VECs was assessed by von Willebrand factor staining. For experiments, cells were seeded onto […] dishes and were treated with either proteasome inhibitors MG132, MG262, with the non-proteasomal cathepsin inhibitor ALLM, or with solvent (DMSO) for the times and concentrations indicated. In some experiments, the transcription inhibitor α-amanitin (2.5 μg/mL) was pre-incubated one hour before addition of proteasome inhibitor. Cell viability was assessed by trypan blue exclusion. For HUVECs, the inventors used only second- to third-passage cells for all experiments. For phalloidin-DAPI double staining, cells were fixed with 4% paraformaldehyde, permeabilized with 1% Triton, and blocked with 1% FCS. The inventors took cell photos with a Zeiss camera and analysed them with Axiovert 3.0 software.
After treatment, cells were lysed in Trizol reagent (Gibco Life Technologies, Karlsruhe, Germany) and 800 ng of total RNA were reversed transcribed with random hexamers. Primer sequences were synthesized by TIB Molbiol (Berlin, Germany), and TaqMan probes by Eurogentec (Seraing, Belgium). Table 1 summarizes the sequences of primers and probes used in this study. mRNA expression was standardized to the HPRT (hypoxanthine phosphoribosyl transferase) gene as a housekeeping gene, the transcription level of which were not influenced under our experimental conditions. PCR amplification was carried out in 25 μL TaqMan Universal PCR Master Mix (Perkin Elmer Applied Biosystems, Foster City, Calif.) containing either 0.3 or 0.9/μmol/L primer, 0.2/μmol/L TaqMan probe, and 1 μl of the reverse transcription reaction in a 5700 Sequence Detection System (Perkin Elmer Applied Biosystems). Thermal cycling conditions comprised an initial denaturation step at 95° C. for 10 minutes, followed by 95° C. for 15 seconds and 60° C. for 1 minute for 40 cycles. Size and purity of the amplification products were verified on a 20% PAA gel. The CT (threshold cycle) is defined as the number of cycles required for the fluorescence signal to exceed the detection threshold. The expression of the target gene relative to the housekeeping gene was calculated as the difference between the threshold values for the two genes.
The SYBR Green method was applied for quantitative amplification of bovine eNOS mRNA. In our analysis with the transcription inhibitor α-amanitin—which blocks RNA polymerase II, whereas RNA polymerase I is insensitive to this toxin (Lindell T J et al. Specific inhibition of nuclear RNA polymerase II by alpha-amanitin. Science. 1970; 170: 447-449)—the inventors standardized eNOS mRNA expression to RP29 (ribosomal protein 29) gene as housekeeping gene. Thermal cycling conditions were identical to the TaqMan PCR.

proteasome = experiment: Accumulation of poly-ubiquitinylated proteins (anti-ubiquitin Western blot) in CPAE cells; type: cell-based, bovine
Procedure: as §1
(§2) After treatment, cells were washed twice with PBS and lysed in extraction buffer containing in mmol/L: Tris/HCl 50 (pH 7.4), KCl 154, glucose 5, EDTA 0.5, PMSF 1, DTT 2, and 1% Triton X-100. Total protein (50 μg per lane) was subjected to SDS-PAGE and membranes were probed with anti-eNOS monoclonal antibody (1:2500) or with anti-ubiquitin antibody (1:1000). Membranes were incubated with secondary anti-mouse antibody (1:2500) conjugated to alkaline phosphatase for eNOS or with anti-rabbit antibody conjugated to horseradish peroxidase (1:10000) for ubiquitin. Bands were visualized by using BCIP and Nitro Blue Tetrazolium (Sigma) for eNOS, and by employing the ECL detection system (Amersham) for ubiquitin.

eNOS [2] = experiment: eNOS protein expression by Western blot in HUVECs; type: cell-based, human
Procedure: as §1, with “For phalloidin-DAPI double staining, cells were fixed with 4% paraformaldehyde, permeabilized with 1% Triton, and blocked with 1% FCS.” left out, “software. […]” for “software.”

rat aortic rings = experiment: Vasorelaxation studies in pretreated rat aortic rings (organ chamber); type: cell-based; details: 48 hours
Procedure: Thoracic aortas from male Wistar rats were rapidly excised, cleaned of connective tissue, and cut into rings 2 to 3 mm in length for organ-chamber experiments. Rings were incubated with MG132 100 nmol/L, 250 nmol/L, or solvent, or TNF-α (250 pg/ml) in the presence and absence of 250 nM MG132, for 48 hours in MEM at 37° C. containing 50 U/mL penicillin, 50 μg/mL streptomycin, 0.1% BSA, and 1 μg/mL polymyxin B. The rings were then mounted on platinum hooks in 10 ml jacketed organ baths containing modified Krebs-Henseleit solution (composition in mmol/L: NaCl 144, KCl 5.9, CaCli 1.6, MgSO^4− 1.2, KH2PO4^− 1.2, NaHCO3^− 25, and D-glucose 11.1) and diclofenac 1 μmol/L. Tension was gradually adjusted to 2 g over 1 hour. The solution in the bath was kept at 37° C. with a gas mixture of […]. Following equilibration and submaximal precontraction with phenylephrine (0.05 μmol/L), relaxation to increasing concentrations (1 nmol/L to 1 μmol/L) of the endothelium-dependent vasodilator acetylcholine was performed to obtain cumulative concentration-response curves. Selected studies were conducted in rings treated with L-NAME (1 mmol/L) before phenylephrine exposure. Maintenance of smooth-muscle integrity following incubation with the proteasome inhibitor or solvent was confirmed by evaluation of endothelium-independent vasodilation to papaverine (1 nmol/L to 1 μmol/L).

eNOS [3] = experiment: eNOS activity, L-[3H]arginine to L-[3H]citrulline conversion in extracts of treated CPAE cells; type: cell-based, bovine
Procedure: eNOS activity was assessed by the formation of L-[^3H]citrulline from L-[^3H]arginine after separation of the amino acids by cation exchange chromatography. Endothelial cells were washed with PBS and lysed in the same extraction buffer as for Western blot analysis. The inventors added 50 μg of total protein to the reaction mixture containing 50 mmol/L Hepes pH 7.4, 0.1% Triton X-100, 1 mmol/L EDTA, 1.25 mmol/L CaCl2, 1 mmol/L DTT, 1 μmol/L FAD, 15 μmol/L BH4, 1 mmol/L NADPH, and 1 μCi L-[^3H]arginine. Incubation was performed for 30 minutes at 37° C. Reactions were terminated by adding 0.5 ml of ice-cold Dowex (Na^+ form). L-[^3H]citrulline was separated from L-[^3H]arginine by Dowex chromatography, and L-[^3H]citrulline formation was quantified by liquid scintillation counting. The inventors subtracted the values obtained from samples incubated without cell extracts. […] In some samples, CaCl2 was omitted from the reaction buffer to exclude any contribution of inducible NO synthase (iNOS).

cardiomyocytes = details: cited from earlier work
CPAE cells = experiment: Cell viability by trypan blue exclusion; type: cell-based, bovine
Procedure: as §1, with “For phalloidin-DAPI double staining, cells were fixed with 4% paraformaldehyde, permeabilized with 1% Triton, and blocked with 1% FCS.” left out

eNOS [4] = experiment: eNOS protein expression by Western blot in CPAE cells; type: cell-based, bovine; details: for upregulation of eNOS protein (specificity comparison with MG132): equipotent doses
Procedure: as §1, §2

[5] = test system: cultured neonatal rat cardiomyocytes; details: cited from earlier work
eNOS mRNA [6] = experiment: eNOS mRNA levels by real-time RT-PCR in HUVECs, with or without TNF-α; type: cell-based, human; details: 48 hours
Procedure: Purity of HU-VECs was assessed by von Willebrand factor staining. For experiments, cells were seeded onto 6-mm diameter dishes and were treated with either proteasome inhibitors MG132, MG262, with the non-proteasomal cathepsin inhibitor ALLM, or with solvent (DMSO) for the times and concentrations indicated. In some experiments, the transcription inhibitor α-amanitin (2.5 μg/mL) was pre-incubated one hour before addition of proteasome inhibitor. Cell viability was assessed by trypan blue exclusion. For HUVECs, the inventors used only second- to third-passage cells for all experiments.
For eNOS expression in HUVECs, cells were treated with DMSO (control), TNF-α (1, 2.5 and 5 ng/ml) and TNF-α (same concentrations) in the presence of 70 nM MG132, for 48 hours, whereupon eNOS mRNA levels were measured (see Method 3).
After treatment, cells were lysed in Trizol reagent (Gibco Life Technologies, Karlsruhe, Germany) and 800 ng of total RNA were reversed transcribed with random hexamers. Primer sequences were synthesized by TIB Molbiol (Berlin, Germany), and TaqMan probes by Eurogentec (Seraing, Belgium). […] The CT (threshold cycle) is defined as the number of cycles required for the fluorescence signal to exceed the detection threshold. The expression of the target gene relative to the housekeeping gene was calculated as the difference between the threshold values for the two genes.

[7] = rat aortic rings pretreated 100 and 250 nmol/L

CC[C@H](C)[C@@H]1NC(=O)CNC(=O)[C@@H]2Cc3c([nH]c4cc(O)ccc34)[S+]([O-])C[C@@H](NC(=O)CNC1=O)C(=O)N[C@@H](CC(N)=O)C(=O)N1C[C@H](O)C[C@H]1C(=O)N[C@@H]([C@@H](C)[C@@H](O)CO)C(=O)N2 (stereo in doubt) [α-amanitin]
effect on overall eNOS mRNA levels (eNOS mRNA [1]; 2.5 μg/mL, pre-incubated 1 hour): reduced overall eNOS mRNA levels

CC(C)C[C@@H](C=O)NC(=O)[C@H](CC(C)C)NC(=O)[C@H](CC(C)C)NC(=O)OCc1ccccc1 [MG132, N-carbobenzoxy-L-leucinyl-L-leucinyl-L-leucinal] (Cbz-Leu-Leu-Leu-aldehyde)
concentration from which poly-ubiquitinylated proteins accumulate (proteasome): ≥ 50 nmol/L | proteasome inhibition at 20 nmol/L (proteasome; 20 nmol/L): had no proteasomal inhibitory influence | time for which poly-ubiquitinylated proteins are detectable after a single dose (proteasome; 100 nmol/L single dose): three | accumulation of poly-ubiquitinylated proteins (proteasome; 50 to 250 nmol/L): led to accumulation of poly-ubiquitinylated proteins | time at which upregulation of eNOS mRNA begins (eNOS mRNA [1]): 16 h | time at which eNOS mRNA is still elevated after a single dose (eNOS mRNA [1]; 100 nmol/L single dose): 7 days | maximum eNOS mRNA level, times the control level (eNOS mRNA [1]; 100 nmol/L, 24 hours): 6.5 times the control level | MG132-induced increase in eNOS mRNA after α-amanitin pretreatment (eNOS mRNA [1]; α-amanitin pretreatment 1 hour): without eliminating the increase in mRNA levels induced by MG132 | eNOS protein expression in HUVECs (eNOS [2]): dose-dependent increase in eNOS | maximum relaxation to acetylcholine, percentage of phenylephrine precontraction (rat aortic rings; rat aortic rings pretreated 250 nmol/L): 89.4±5.7% | endothelial-independent vasorelaxation in response to papaverine (rat aortic rings; [7]): remained unaffected | endothelium-dependent relaxation to acetylcholine (rat aortic rings; [7]): significantly enhanced | vasoreactivity to acetylcholine of TNF-α-damaged aortic rings (rat aortic rings; rat aortic rings, 250 nM with TNF-α 250 pg/ml): vasoreactivity can be significantly improved | time at which the increase in eNOS activity begins (eNOS [3]): 24 h | duration of enhanced eNOS enzyme activity after a single dose (eNOS [3]; 100 nmol/L single dose): up to 10 days | protective effects at concentrations of less than 1 μM (cardiomyocytes): did not exhibit protective effects | toxic doses by trypan blue exclusion (CPAE cells): higher than 250 nmol/L | effect on eNOS expression at 20 nmol/L (eNOS [4]; 20 nmol/L): did not affect eNOS expression | time from which eNOS upregulation is significant (eNOS [4]; 50 nmol/L): 24 h | duration of enhanced eNOS protein after a single dose (eNOS [4]; 100 nmol/L single dose): up to 10 days | effect on eNOS protein levels at higher concentrations (eNOS [4]; 500 nmol/L and above): decreased eNOS protein levels | effect on eNOS protein levels at low concentrations (eNOS [4]; 50 to 250 nmol/L): gradually increased eNOS protein levels | time at which the rise of eNOS protein expression began (eNOS [4]; incubation with single dose): 16 h | eNOS protein expression versus control (eNOS [4]; single dose 100 nmol/L, 48 hours): 2.4 fold | spontaneous beating time of cardiomyocytes at 46° C. ([5]; 1 μM, control hyperthermia 5+/−2 min): 28 ± 5 min | induction of heat shock proteins at mRNA and protein levels [5]: time- and concentration-dependently induced Hsp72 and Hsp32 | eNOS mRNA expression in presence of TNF-α versus TNF-α alone (eNOS mRNA [6]; HUVECs, 70 nM with TNF-α 1, 2.5, 5 ng/ml): substantially increased expression of eNOS mRNA

TNF-α
acetylcholine-dependent vasodilatation versus DMSO control (rat aortic rings; rat aortic rings, 250 pg/ml): significantly reduced | eNOS mRNA expression versus DMSO control (eNOS mRNA [6]; HUVECs, 1, 2.5 and 5 ng/ml): reduction and almost abolition of mRNA expression

CSCC[C@@H](C=O)NC(=O)[C@H](CC(C)C)NC(=O)[C@H](CC(C)C)NC(C)=O [ALLM, N-acetyl-leucyl-leucyl-methioninal] (Ac-Leu-Leu-Met-aldehyde)
proteasome inhibition (poly-ubiquitinylated proteins), comparison with MG132 (proteasome; corresponding doses): failed to inhibit the proteasome | upregulation of eNOS protein (specificity comparison with MG132) (eNOS [4]): had no effect; also recorded: failed to upregulate eNOS

CC(C)C[C@H](NC(=O)[C@H](CC(C)C)NC(=O)[C@H](CC(C)C)NC(=O)OCc1ccccc1)B(O)O [MG262]
upregulation of eNOS protein (specificity comparison with MG132) (eNOS [4]): also upregulates eNOS; also recorded: Comparable results; also recorded: induced upregulation of eNOS protein to an extent similar to that caused by MG132
